Assay results from patent publication US9079897B2, “Imidazo-pyridine derivatives as activin-like receptor kinase (ALK4 or ALK5) inhibitors” (NOVARTIS AG, priority 2008, dated 2015).

Tests used:
[1] = molecular target: T1, human ALK5 (kinase domain, ALK5 T204D) (Homo sapiens, UniProt P36897, T204D); test: ALK5 kinase activity, [33P] phosphate incorporation into casein; type: biochemical; conditions: casein substrate
T1 construct: The kinase domain of human ALK5 (amino acids 200-503); made in house; host or cells: insect cells (baculovirus expression)
T1 sequence (P36897 200-503 T204D): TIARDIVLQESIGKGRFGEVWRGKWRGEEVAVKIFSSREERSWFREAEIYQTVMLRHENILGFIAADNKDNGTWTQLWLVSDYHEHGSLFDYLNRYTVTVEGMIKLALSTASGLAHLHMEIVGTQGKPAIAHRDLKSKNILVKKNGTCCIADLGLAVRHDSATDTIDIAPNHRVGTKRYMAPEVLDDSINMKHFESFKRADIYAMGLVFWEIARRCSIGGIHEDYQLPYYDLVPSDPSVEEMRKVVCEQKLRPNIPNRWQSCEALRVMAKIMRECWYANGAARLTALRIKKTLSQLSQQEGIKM
Method: The kinase activity of ALK5 is assessed by measuring radiolabelled phosphate [33P] incorporation in to the generic substrate, casein. The kinase domain of human ALK5 (amino acids 200-503) is fused to an N-terminal histidine tag. The kinase activity of ALK5 is rendered constitutive via point mutation at amino acid 204 (threonine to aspartate modification, ALK5 T204D) and the kinase construct is engineered to be expressed from a baculovirus expression construct in insect cells. The purified, recombinantly-expressed histidine-tagged ALK5 T204D protein is dissolved at 5.4 mg/ml in 50 mM Tris-HCl pH 8.0, 150 mM NaCl, 5 mM DTT. ALK5 T204D is dissolved to 2.5 μg/ml in assay buffer (Assay buffer: 20 mM Tris-HCl pH 7.4, 10 mM MgCl2, 2 mM MnCl2) on the day of use.
Test compounds and reference compounds are dissolved in assay buffer without DTT containing 5% (v/v) DMSO. Stock solutions of test and reference compounds are diluted in assay buffer with DTT (1.25 mM) containing 4.5% (v/v) DMSO. 10 μl of test or reference compound are added to the appropriate wells of 96 well U-bottomed plate. Total enzyme activity is determined by measuring ALK5 T204D activity in the absence of ALK5 kinase inhibitor reference compounds. Non-specific binding (NSB) is determined by measuring the activity of ALK5 T204D in the presence of ALK5 kinase inhibitor reference compounds. 10 μl of dephosphorylated casein stock solution (dephosphorylated casein is dissolved in ddH2O at 20 mg/ml) is added per well (200 μg/well final assay concentration). 20 μl of ALK5 T204D (2.5 μg/ml solution) is added per well (50 ng/well final assay concentration). The plates are left to incubate at room temperature for 10 minutes.
10 μl of ATP mix is added to the well to initiate the reaction (0.66 nM [^33P]ATP/1 μM unlabelled ATP/well final assay concentration). The ATP mix is prepared as follows, unlabelled ATP (3 mM) is dissolved in ddH2O and pH adjusted to 7.4. The stock concentration of [^33P]ATP is 10 μCi/μl. The appropriate volume of [^33P]ATP is added to unlabelled ATP solution such that the final assay concentration per well is 0.1 μCi. Following addition of the ATP mix, the plates are incubated at room temperature for 50 minutes. The kinase reaction is terminated by the addition of 50 μL Stop Buffer (20 mM Tris-HCl pH 7.4, 10 mM EDTA).
75 μl/well from the reaction plate is transferred to a Multiscreen-IP plate (MultiScreen-IP plates are prepared by added 50 μL of 70% (v/v) ethanol per well and incubated for 5 minutes at room temperature. The ethanol is removed by aspiration via a MultiScreen HTS Vaccum Manifold unit (Millipore, Cat no: MSVMHT500). The plates are washed twice by adding 200 μl/well ddH2O). The MultiScreen-IP plate is incubated at room temperature for 30 minutes to allowing binding of casein to the plate. The MultiScreen-IP plates are washed three times by adding 200 μl/well 100 mM phosphoric acid solution and the gasket is carefully removed from the back of the MultiScreen-IP plate and the plate dried in the oven for 30 minutes. The MultiScreen-IP plate is backsealed, 50 μL of MICROSCINT™20 is added, then the plates are topsealed and radiolabelled casein detected and quantified on a TOPCOUNT™ plate-reader using the ^33P scintillation protocol.

[2] = tested on: dimethylnitrosamine induced liver fibrosis; conditions: rat, cited from earlier work
[3] = tested on: bleomycin-induced pulmonary fibrosis; conditions: bleomycin-treated rats; cited from earlier work
[4] = given therapeutically, dimethylnitrosamine induced liver fibrosis

O[C@H]1CCC[C@@H](Nc2ccc3ncn(-c4ccnc(-c5ccoc5)c4)c3n2)C1 (racemic) [Example 1.5, (1SR, 3RS)-3-[3-(2-Furan-3-yl-pyridin-4-yl)-3H-imidazo[4,5-b]pyridin-5-ylamino]-cyclohexanol]
IC50 [1]: 6 nM

O[C@H]1CCC[C@H](Nc2ccc3ncn(-c4ccnc(-c5ccc(F)cc5)c4)c3n2)C1 (racemic) [Example 1.9, (1SR, 3SR)-3-{3-[2-(4-Fluorophenyl)-pyridin-4-yl)-3H-imidazo[4,5-b]pyridin-5-ylamino}-cyclohexanol]
IC50 [1]: 318 nM

O[C@H]1CCC[C@@H](Nc2ccc3ncn(-c4ccnc(-n5cccn5)c4)c3n2)C1 (racemic) [Example 1.17, (1SR,3RS)-3-[3-(2-Pyrazol-1-yl-pyridine-4-yl)-3H-imidazo[4,5-b]pyridin-5-ylamino]-cyclohexanol]
IC50 [1]: 56 nM

OC1CCC(Nc2ccc3ncn(-c4ccnc(-c5ccoc5)c4)c3n2)CC1 (stereo not shown) [Example 1.1, 4-[3-(2-Furan-3-yl-pyridin-4-yl)-3H-imidazo[4,5-b]pyridin-5-ylamino]-cyclohexanol]
IC50 [1]: 13 nM

Cc1ccn(-c2cc(-n3cnc4ccc(NC5CCCC(O)C5)nc43)ccn2)n1 (stereo not drawn) [Example 1.13, (1SR,3RS)-3-{3-[2-(3-Methyl-pyrazol-1-yl)pyridine-4-yl]-3H-imidzo[4,5-b]pyridin-5-ylamino}-cyclohexanol]
IC50 [1]: 38 nM

c1ccc(-c2cc(-c3cn[nH]c3-c3ccccn3)ccn2)cc1 [GW6604]
side effects ([2]; 3 weeks treatment): no obvious side effects
inhibition of extracellular matrix deposition [2, 4]: 60%
prevention of death rate [2, 4]: 40%

B1: follistatin: an antagonist of activin signalling (protein, UniProt P19883 30-344, looked up)
Follistatin: GNCWLRQAKNGRCQVLYKTELSKEECCSTGRLSTSWTEEDVNDNTLFKWMIFNGGAPNCIPCKETCENVDCGPGKKCRMNKKNKPRCVCAPDCSNITWKGPVCGLDGKTYRNECALLKARCKEQPELEVQYQGRCKKTCRDVFCPGSSTCVVDQTNNAYCVTCNRICPEPASSEQYLCGNDGVTYSSACHLRKATCLLGRSIGLAYEGKCIKAKSCEDIQCTGGKKCLWDFKVGRGRCSLCDELCPDSKSDEPVCASDNATYASECAMKEAACSSGVLLEVKHSGSCNSISEDTEEEEEDEDQDYSFPISSILEW
lung fibrosis [3]: attenuated lung fibrosis
number of macrophages and neutrophils in bronchoalveolar lavage [3]: significantly reduced
